Measurements published in patent publication US12466822B2, “Heterocyclic compounds as immunomodulators” (Incyte Corporation, priority 2016, dated 2025).

biological target: T1, PD-1/PD-L1 protein/protein interaction (recombinant human PD-L1 protein (19-238), recombinant human PD-1 protein (25-167)) (Homo sapiens, UniProt Q9NZQ7); test: PD-1/PD-L1 Homogeneous Time-Resolved Fluorescence (HTRF) Binding Assay; settings: 25° C., PBS buffer (pH 7.4), 40 minutes preincubation with inhibitors
T1 construct: Recombinant human PD-L1 protein (19-238) with a His-tag at the C-terminus; purchased AcroBiosystems PD1-H5229 (PD-L1-His); PD1-H5257 (PD-1-Fc)
T1 sequence (Q9NZQ7 19-238): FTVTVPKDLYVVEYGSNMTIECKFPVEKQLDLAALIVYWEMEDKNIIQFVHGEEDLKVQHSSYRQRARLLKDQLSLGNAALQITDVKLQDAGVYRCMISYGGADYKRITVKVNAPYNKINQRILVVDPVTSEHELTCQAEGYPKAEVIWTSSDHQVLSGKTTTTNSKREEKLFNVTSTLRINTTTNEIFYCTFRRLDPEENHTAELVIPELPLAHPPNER
Procedure: The assays were conducted in a standard black 384-well polystyrene plate with a final volume of 20 μL. Inhibitors were first serially diluted in DMSO and then added to the plate wells before the addition of other reaction components. The final concentration of DMSO in the assay was 1%. The assays were carried out at 25° C. in the PBS buffer (pH 7.4) with 0.05% Tween-20 and 0.1% BSA. Recombinant human PD-L1 protein (19-238) with a His-tag at the C-terminus was purchased from AcroBiosystems (PD1-H5229). Recombinant human PD-1 protein (25-167) with Fc tag at the C-terminus was also purchased from AcroBiosystems (PD1-H5257). PD-L1 and PD-1 proteins were diluted in the assay buffer and 10 μL was added to the plate well. Plates were centrifuged and proteins were preincubated with inhibitors for 40 minutes. The incubation was followed by the addition of 10 μL of HTRF detection buffer supplemented with Europium cryptate-labeled anti-human IgG (PerkinElmer-AD0212) specific for Fc and anti-His antibody conjugated to SureLight®-Allophycocyanin (APC, PerkinElmer-AD0059H). After centrifugation, the plate was incubated at 25° C. for 60 min. before reading on a PHERAstar FS plate reader (665 nm/620 nm ratio). Final concentrations in the assay were […], 10 nM PD-L1, 1 nM europium anti-human IgG and 20 nM anti-His-Allophycocyanin. IC50 determination was performed by fitting the curve of percent control activity versus the log of the inhibitor concentration using the GraphPad Prism 5.0 software.

| SMILES | IC50 |
| --- | --- |
| Cc1c(NC(=O)c2nc3c(n2C)CCN(C)C3)cccc1-c1cccc(Nc2nccc3cc(CN4CC(C(=O)O)C4)cnc23)c1Cl [Example 14, 1-((8-(2-chloro-3′-(1,5-dimethyl-4,5,6,7-tetrahydro-1H-imidazo[4,5-c]pyridine-2-carboxamido)-2′-methylbiphenyl-3-ylamino)-1,7-naphthyridin-3-yl)methyl)azetidine-3-carboxylic acid] | ≤ 10 nM |
| Cc1c(Nc2nccc3cc(CN4CC[C@@H](O)C4)cnc23)cccc1-c1cccc(Nc2ncnc3cc(CN4CC[C@@H](O)C4)cnc23)c1C [Example 23, (R)-1-((4-(3′-(3-(((R)-3-hydroxypyrrolidin-1-yl)methyl)-1,7-naphthyridin-8-ylamino)-2,2′-dimethylbiphenyl-3-ylamino)pyrido[3,2-d]pyrimidin-7-yl)methyl)pyrrolidin-3-ol] | ≤ 10 nM |
| Cc1c(Nc2nccc3cc(CN4CC[C@@H](O)C4)cnc23)cccc1-c1cccc(-c2nc3c(o2)CN(C(=O)CN2CCCC[C@H]2C(=O)O)C3)c1C [Example 42, (S)-1-(2-(2-(3′-((3-(((R)-3-hydroxypyrrolidin-1-yl)methyl)-1,7-naphthyridin-8-yl)amino)-2,2′-dimethyl-[1,1′-biphenyl]-3-yl)-4,6-dihydro-5H-pyrrolo[3,4-d]oxazol-5-yl)-2-oxoethyl)piperidine-2-carboxylic acid] | ≤ 10 nM |
| Cc1c(Nc2nccc3cc(CN4CC[C@@H](C(=O)O)C4)cnc23)cccc1-c1cccc(NC(=O)c2nc3c(n2C)CCN(C)C3)c1Cl [Example 31, (R)-1-((8-(2′-chloro-3′-(1,5-dimethyl-4,5,6,7-tetrahydro-1H-imidazo[4,5-c]pyridine-2-carboxamido)-2-methylbiphenyl-3-ylamino)-1,7-naphthyridin-3-yl)methyl)pyrrolidine-3-carboxylic acid] | ≤ 10 nM |
| Cn1cc(CNCCO)cc(C(=O)Nc2cccc(-c3cccc(Nc4nccc5cc(CN6CC(C(=O)O)C6)cnc45)c3Cl)c2Cl)c1=O [Example 17, 1-((8-(2,2′-dichloro-3′-(5-((2-hydroxyethylamino)methyl)-1-methyl-2-oxo-1,2-dihydropyridine-3-carboxamido)biphenyl-3-ylamino)-1,7-naphthyridin-3-yl)methyl)azetidine-3-carboxylic acid] | ≤ 10 nM |
| Cc1c(Nc2nccc3cc(CNCCO)cnc23)cccc1-c1cccc(NC(=O)c2ccc(CN3CCCC[C@H]3C(=O)O)cn2)c1F [Example 3, (S)-1-((6-((2-fluoro-3′-((3-(((2-hydroxyethyl)amino)methyl)-1,7-naphthyridin-8-yl)amino)-2′-methyl-[1,1′-biphenyl]-3-yl)carbamoyl)pyridin-3-yl)methyl)piperidine-2-carboxylic acid] | ≤ 10 nM |
| Cc1c(Nc2nccc3cc(CN[C@@H](C)CO)cnc23)cccc1-c1cccc(NC(=O)c2nc3c(n2C)CCN(C[C@H]2CC[C@H](C(=O)O)CC2)C3)c1Cl [Example 50, trans-4-((2-(2-chloro-3′-(3-(((S)-1-hydroxypropan-2-ylamino)methyl)-1,7-naphthyridin-8-ylamino)-2′-methylbiphenyl-3-ylcarbamoyl)-1-methyl-6,7-dihydro-1H-imidazo[4,5-c]pyridin-5(4H)-yl)methyl)cyclohexanecarboxylic acid] | ≤ 10 nM |
| Cc1c(Nc2nccc3cc(CN4CCCC4)cnc23)cccc1-c1cccc(NC(=O)c2nc3c(n2C)CCN(C[C@H]2CC[C@@H](C(=O)O)CC2)C3)c1Cl [Example 49, cis-4-((2-(2-chloro-2′-methyl-3′-(3-(pyrrolidin-1-ylmethyl)-1,7-naphthyridin-8-ylamino)biphenyl-3-ylcarbamoyl)-1-methyl-6,7-dihydro-1H-imidazo[4,5-c]pyridin-5(4H)-yl)methyl)cyclohexanecarboxylic acid] | ≤ 10 nM |
| Cc1c(NC(=O)c2nc3c(n2C)CCN(C)C3)cccc1-c1cccc(Nc2nccc3cc(CN4CC[C@@H](C(=O)O)C4)cnc23)c1C [Example 46, (R)-1-((8-(3′-(1,5-dimethyl-4,5,6,7-tetrahydro-1H-imidazo[4,5-c]pyridine-2-carboxamido)-2,2′-dimethylbiphenyl-3-ylamino)-1,7-naphthyridin-3-yl)methyl)pyrrolidine-3-carboxylic acid] | ≤ 10 nM |

Next, values leading:

| IC50 | SMILES |
| --- | --- |
| ≤ 10 nM | Cc1c(-c2nc3c(s2)CN(C(=O)CN2CC[C@H](O)C2)C3)cccc1-c1cccc(Nc2nccc3cc(CN4CC[C@@H](C(=O)O)C4)cnc23)c1Cl [Example 97, (R)-1-((8-((2-chloro-3′-(5-(2-((S)-3-hydroxypyrrolidin-1-yl)acetyl)-5,6-dihydro-4H-pyrrolo[3,4-d]thiazol-2-yl)-2′-methyl-[1,1′-biphenyl]-3-yl)amino)-1,7-naphthyridin-3-yl)methyl)pyrrolidine-3-carboxylic acid] |
| ≤ 10 nM | Cc1c(Nc2nccc3cc(CN4CC[C@@H](O)C4)cnc23)cccc1-c1cccc(-c2nc3c(s2)CN(C(=O)CN2CC[C@@H](O)C2)C3)c1C [Example 86, 2-((R)-3-hydroxypyrrolidin-1-yl)-1-(2-(3′-((3-(((R)-3-hydroxypyrrolidin-1-yl)methyl)-1,7-naphthyridin-8-yl)amino)-2,2′-dimethyl-[1,1′-biphenyl]-3-yl)-4,6-dihydro-5H-pyrrolo[3,4-d]thiazol-5-yl)ethan-1-one] |
| ≤ 10 nM | Cc1c(Nc2nccc3cc(CN4CC[C@@H](O)C4)cnc23)cccc1-c1cccc(NC(=O)c2nc3c(n2C)CCN(CC[C@H]2CC[C@H](C(=O)O)CC2)C3)c1Cl (single isomer, unassigned) [Example 52] |
| ≤ 10 nM | Cc1c(Nc2nccc3cc(CN4CC[C@@H](C(=O)O)C4)cnc23)cccc1-c1cccc(-c2nc3c(s2)CN(C(=O)CN(C)C)C3)c1C [Example 85, (R)-1-((8-((3′-(5-(dimethylglycyl)-5,6-dihydro-4H-pyrrolo[3,4-d]thiazol-2-yl)-2,2′-dimethyl-[1,1′-biphenyl]-3-yl)amino)-1,7-naphthyridin-3-yl)methyl)pyrrolidine-3-carboxylic acid] |
| ≤ 10 nM | Cc1c(-c2nc3c(s2)CN(C(=O)CN(C)C)C3)cccc1-c1cccc(Nc2nccc3cc(CN4CC[C@H](CC(=O)O)C4)cnc23)c1Cl [Example 91, (R)-2-(1-((8-((2-chloro-3′-(5-(dimethylglycyl)-5,6-dihydro-4H-pyrrolo[3,4-d]thiazol-2-yl)-2′-methyl-[1,1′-biphenyl]-3-yl)amino)-1,7-naphthyridin-3-yl)methyl)pyrrolidin-3-yl)acetic acid] |
| ≤ 10 nM | Cc1c(-c2nc3c(s2)CN(C(=O)CN2CC(O)C2)C3)cccc1-c1cccc(Nc2nccc3cc(CN4CC[C@@H](C(=O)O)C4)cnc23)c1Cl [Example 98, (R)-1-((8-((2-chloro-3′-(5-(2-(3-hydroxyazetidin-1-yl)acetyl)-5,6-dihydro-4H-pyrrolo[3,4-d]thiazol-2-yl)-2′-methyl-[1,1′-biphenyl]-3-yl)amino)-1,7-naphthyridin-3-yl)methyl)pyrrolidine-3-carboxylic acid] |
| ≤ 10 nM | Cc1c(Nc2nccc3cc(CN4CC[C@@](C)(O)C4)cnc23)cccc1-c1cccc(NC(=O)c2nc3c(n2C)CCN(CC[C@H]2CC[C@H](C(=O)O)CC2)C3)c1Cl [Example 61, trans-4-(2-(2-(2-chloro-3′-(3-(((R)-3-hydroxy-3-methylpyrrolidin-1-yl)methyl)-1,7-naphthyridin-8-ylamino)-2′-methylbiphenyl-3-ylcarbamoyl)-1-methyl-6,7-dihydro-1H-imidazo[4,5-c]pyridin-5(4H)-yl)ethyl)cyclohexanecarboxylic acid] |
| ≤ 10 nM | Cc1c(Nc2nccc3cc(CN4CC(C(=O)O)C4)cnc23)cccc1-c1cccc(Nc2nccc3cc(CN4CC[C@@H](O)C4)cnc23)c1Cl [Example 75, (R)-1-((8-((2′-chloro-3′-((3-((3-hydroxypyrrolidin-1-yl)methyl)-1,7-naphthyridin-8-yl)amino)-2-methyl-[1,1′-biphenyl]-3-yl)amino)-1,7-naphthyridin-3-yl)methyl)azetidine-3-carboxylic acid] |
| ≤ 10 nM | Cc1c(-c2nc3c(s2)CN(C(=O)CN(C)CCO)C3)cccc1-c1cccc(Nc2nccc3cc(CN4CC[C@@H](C(=O)O)C4)cnc23)c1Cl [Example 96, (R)-1-((8-((2-chloro-3′-(5-(N-(2-hydroxyethyl)-N-methylglycyl)-5,6-dihydro-4H-pyrrolo[3,4-d]thiazol-2-yl)-2′-methyl-[1,1′-biphenyl]-3-yl)amino)-1,7-naphthyridin-3-yl)methyl)pyrrolidine-3-carboxylic acid] |
| ≤ 10 nM | O=C(O)[C@@H]1CCN(Cc2cnc3c(Nc4cccc(-c5cccc(Nc6nccc7cc(CN8CC[C@H](O)C8)cnc67)c5Cl)c4Cl)nccc3c2)C1 [Example 82, (R)-1-((8-((2,2′-dichloro-3′-((3-(((S)-3-hydroxypyrrolidin-1-yl)methyl)-1,7-naphthyridin-8-yl)amino)-[1,1′-biphenyl]-3-yl)amino)-1,7-naphthyridin-3-yl)methyl)pyrrolidine-3-carboxylic acid] |
